Test results taken from patent US6585988B2, “Reaction product of arginine and p-aminobenzoic acid, cosmetic, and human and animal health compositions thereof” (Epicare Ltd., priority 1998, dated 2003).

System: clinical mastitis
Experiment: Field trials: intramammary infusion in mastitis
Assay type: in vivo, cow
Settings: treated one time on the previous day
From the text: CDRMREC was infused up the teat duct of all 4 quarters of a cow that had clinical mastitis in the left hindquarter. […] Additionally, because of a differential in the vacuum when milking the cow, infected discharge from the left hindquarter contaminated the left fore quarter which then began to show symptoms of clinical mastitis (flaking in the milk). The left fore quarter had not been infused with erythromycin. […] All signs of swelling were gone. The milk from all quarters was normal and untainted.
Treatment consisted of six 10 ml intramamery ductal infusions of CDRMREC in the afflicted quarter following each milking.
A Jersey cow was suffering from mastitis in the right forequarter and had received an antibiotic infusion in that quarter. […] The next day, after the PM milking, she received only one 10 ml infusion of CDRMREC in each of her quarters.
Her milk appeared normal. Three days later, the swelling was still present and like a flattened golf ball but the milk tested normal.

CC[C@H]1OC(=O)[C@H](C)[C@@H](O[C@H]2C[C@@](C)(OC)[C@@H](O)[C@H](C)O2)[C@H](C)[C@@H](O[C@@H]2O[C@H](C)C[C@H](N(C)C)[C@H]2O)[C@](C)(O)C[C@@H](C)C(=O)[C@H](C)[C@@H](O)[C@]1(C)O [erythromycin]
swelling of afflicted quarter: the swelling still remained
